Patent publication US12577248B2, “Substituted [1,2,4]triazolo[1,5-a]pyrazines as spleen tyrosine kinase inhibitors” (NANJING RUIJIE PHARMA CO., LTD., priority 2020, dated 2026)

Key:
[1] = target: T1, Ba/F3-TEL-SYK cells (Homo sapiens, UniProt P43405); experiment: Ba/F3-TEL-SYK cell-based assay (CellTiter-Glo proliferation); conditions: 72 hr, read-out: BaF3 Cell assay IC50
T1 construct: fused on or other part: N-terminal part of TEL (ETV6) with its oligomerising PNT/SAM domain, fused before the SYK part that carries the kinase domain; P41212 (Transcription factor ETV6)
Procedure: CellTiter-Glo® Luminescent Cell Viability Assay was used to determine the number of viable cells in culture based on quantitation of the ATP present, as an indicator of metabolically active cells. The assay was performed in the following steps: First, the testing compounds were dissolved in DMSO to make a stock solution. The stocks (10 mM) were then diluted to varying concentrations: […], 0.305 and 0.102 μM. An aliquot of 0.2 μl of diluted compounds were added to the 384 well assay plate. Second, added 40 μl of cell suspension with 800 Ba/F3-TEL-SYK cells into each well and incubated the plate at 37° C., 5% CO2 for 72 hr. Then, added 20 μl Cell Titer-Glo Reagent into each well of the cell culture plate. Mixed the contents for 2 min on an orbital shaker to lyse cells, and rest the plate at room temperature for 30 min. Finally, luminescence values were obtained using an Envision 2104 plate reader (PerkinElmer) and calculated the average data and Standard Deviation (SD) of DMSO and Reference (GS-9973, 1 μM) as high control and low control. To determine the IC50 value, fit the data using non-linear regression equation.

[2] = target: SYK kinase (Homo sapiens, UniProt P43405); experiment: SYK kinase assay (HTRF KinEASE-TK); assay type: biochemical; conditions: class symbols, read-out: Syk inhibition IC50
Procedure: A homogeneous time-resolved fluorescence (HTRF) assay was performed to assess the potential inhibitory effect of compounds on SYK kinase. The HTRF KinEASE-TK kit (Cisbio) was used. During the step, kinase will phosphorylate the substrate, and the resulting fluorescence signal is proportional to the phosphorylation level. The assay was performed in the following steps: First, the testing compounds were diluted 1:3 in succession in DMSO. The 1× kinase buffer contained 1 volume of 5× enzymatic buffer with 4 volumes of distilled water, 5 mM MgCl2, 1 mM MnCl2, and 1 mM DTT. The assays were assembled in 384 well plates (784075, Greiner) where 10 nl of compound solutions were added into each well, and the plates were centrifuged at 1000 g for 1 min. Then, 5 μl of 2×SYK in 1× kinase buffer were added to each well. The plates were centrifuged at 1000 g for 30 s and then incubated at room temperature for 10 min. The reaction was initiated by adding […] of premixed 2×TK-substrate-biotin and ATP mixture in 1× kinase buffer to the assay plates. The plates were centrifuged at 1000 g for 30 s and incubated at room temperature for 30 min. Phosphorylation was detected by adding 5 μl of 4×Sa-XL 665 in HTRF detection buffer into each well of the assay plates. The plates were centrifuged plates at 1000 g for 30 sec, and then incubated at room temperature for 1 h. Finally, the plates were read on an Envision 2104 plate reader (PerkinElmer) and the fluorescence signal was measured at 615 nm (Cryptate) and 665 nm (XL665).
A ratio (665/615 nm) was calculated for each well. The inhibition ratio was calculated as follow: […]
IC50 was calculated by fitting % Inhibition values and log of compound concentrations to nonlinear regression (dose response−variable slope) with GraphPad 6.0.

GI50 [1]	IC50 [2]	SMILES
≤ 50 nM	≤ 50 nM	COCCN1CCN(c2ccc(Nc3nc(-c4ccc5cn[nH]c5c4)cn4ncnc34)cc2OC)CC1 [I18, 6-(1H-indazol-6-yl)-N-(3-methoxy-4-(4-(2-methoxyethyl)piperazin-1-yl)phenyl)-[1,2,4]triazolo[1,5-a]pyrazin-8-amine]
50 to 500 nM	≤ 50 nM	CC1(O)CCN(c2ccc(Nc3nc(-c4ccc5cn[nH]c5c4)cn4ncnc34)cc2)CC1 [I23, 1-(4-((6-(1H-indazol-6-yl)-[1,2,4]triazolo[1,5-a]pyrazin-8-yl)amino)phenyl)-4-methylpiperidin-4-ol]
500 to 5000 nM	≤ 50 nM	FC(F)Oc1cc(Nc2nc(-c3ccc4cc[nH]c4c3)cn3ncnc23)ccc1N1CC2CC1CN2C1COC1 (stereo not drawn) [I78, N-(3-(difluoromethoxy)-4-(5-(oxetan-3-yl)-2,5-diazabicyclo[2.2.1]heptan-2-yl)phenyl)-6-(1H-indol-6-yl)-[1,2,4]triazolo[1,5-a]pyrazin-8-amine]
500 to 5000 nM	50 to 500 nM	CC(C)N1C[C@@H]2C[C@@H]1CN2c1ccc(Nc2nc(-c3ccc4[nH]ccc4c3)cn3ncnc23)cc1 [I70, 6-(1H-indol-5-yl)-N-(4-((1S,4R)-5-isopropyl-2,5-diazabicyclo[2.2.1]heptan-2-yl)phenyl)-[1,2,4]triazolo[1,5-a]pyrazin-8-amine]
500 to 5000 nM	50 to 500 nM	CC(C)Oc1cc(Nc2nc(-c3ccc4cc[nH]c4c3)cn3ncnc23)ccc1N1CC2CC1CN2C1COC1 (stereo not drawn) [I81, 6-(1H-indol-6-yl)-N-(3-isopropoxy-4-(5-(oxetan-3-yl)-2,5-diazabicyclo[2.2.1]heptan-2-yl)phenyl)-[1,2,4]triazolo[1,5-a]pyrazin-8-amine]
50 to 500 nM	≤ 50 nM	c1nc2c(Nc3ccc(N4CC5(COC5)C4)cc3)nc(-c3ccc4cc[nH]c4c3)cn2n1 [I61, N-(4-(2-oxa-6-azaspiro[3.3]heptan-6-yl)phenyl)-6-(1H-indol-6-yl)-[1,2,4]triazolo[1,5-a]pyrazin-8-amine]
≤ 50 nM	≤ 50 nM	CCN1CCN(c2ccc(Nc3nc(-c4ccc5cn[nH]c5c4)cn4ncnc34)cc2OC)CC1 [I16, N-(4-(4-ethylpiperazin-1-yl)-3-methoxyphenyl)-6-(1H-indazol-6-yl)-[1,2,4]triazolo[1,5-a]pyrazin-8-amine]
50 to 500 nM	50 to 500 nM	COc1cc(Nc2nc(-c3ccc4cn[nH]c4c3)cn3ncnc23)ccc1N1CC2(COC2)C1 [I60, 6-(1H-indazol-6-yl)-N-(3-methoxy-4-(2-oxa-6-azaspiro[3.3]heptan-6-yl)phenyl)-[1,2,4]triazolo[1,5-a]pyrazin-8-amine]
> 5000 nM	50 to 500 nM	FC(F)(F)Oc1cc(Nc2nc(-c3ccc4cc[nH]c4c3)cn3ncnc23)ccc1N1CC2CC1CN2C1COC1 (stereo not drawn) [I77, 6-(1H-indol-6-yl)-N-(4-(5-(oxetan-3-yl)-2,5-diazabicyclo[2.2.1]heptan-2-yl)-3-(trifluoromethoxy)phenyl)-[1,2,4]triazolo[1,5-a]pyrazin-8-amine]
50 to 500 nM	≤ 50 nM	COc1cc(Nc2nc(-c3ccc4c(c3)OCC(=O)N4)cn3ncnc23)ccc1N1CCOCC1 [I28, 7-(8-((3-methoxy-4-morpholinophenyl)amino)-[1,2,4]triazolo[1,5-a]pyrazin-6-yl)-2H-benzo[b][1,4]oxazin-3(4H)-one]
500 to 5000 nM	≤ 50 nM	c1nc2c(Nc3ccc(N4CC5CC4CN5C4COC4)cc3)nc(-c3ccc4cc[nH]c4c3)cn2n1 (stereo not drawn) [I82, 6-(1H-indol-6-yl)-N-(4-(5-(oxetan-3-yl)-2,5-diazabicyclo[2.2.1]heptan-2-yl)phenyl)-[1,2,4]triazolo[1,5-a]pyrazin-8-amine]
50 to 500 nM	50 to 500 nM	c1nc2c(Nc3ccc(N4CC5(COC5)C4)cc3)nc(-c3ccc4cn[nH]c4c3)cn2n1 [I59, N-(4-(2-oxa-6-azaspiro[3.3]heptan-6-yl)phenyl)-6-(1H-indazol-6-yl)-[1,2,4]triazolo[1,5-a]pyrazin-8-amine]
50 to 500 nM	≤ 50 nM	FC(F)Oc1cc(Nc2nc(-c3ccc4cn[nH]c4c3)cn3ncnc23)ccc1N1CCOCC1 [I21, N-(3-(difluoromethoxy)-4-morpholinophenyl)-6-(1H-indazol-6-yl)-[1,2,4]triazolo[1,5-a]pyrazin-8-amine]
50 to 500 nM	≤ 50 nM	COc1cc(Nc2nc(-c3ccc4cc[nH]c4c3)cn3ncnc23)ccc1N1CC2CC1CN2C1COC1 (stereo not drawn) [I76, 6-(1H-indol-6-yl)-N-(3-methoxy-4-(5-(oxetan-3-yl)-2,5-diazabicyclo[2.2.1]heptan-2-yl)phenyl)-[1,2,4]triazolo[1,5-a]pyrazin-8-amine]
≤ 50 nM	≤ 50 nM	COc1cc(Nc2nc(-c3ccc4cn[nH]c4c3)cn3ncnc23)ccc1N1CCS(=O)(=O)CC1 [I24, 4-(4-((6-(1H-indazol-6-yl)-[1,2,4]triazolo[1,5-a]pyrazin-8-yl)amino)-2-methoxyphenyl)thiomorpholine 1,1-dioxide]
≤ 50 nM	≤ 50 nM	COc1cc(Nc2nc(-c3ccc4cn[nH]c4c3)cn3ncnc23)ccc1N1CCN(C)CC1 [I12, 6-(1H-indazol-6-yl)-N-(3-methoxy-4-(4-methylpiperazin-1-yl)phenyl)-[1,2,4]triazolo[1,5-a]pyrazin-8-amine]
≤ 50 nM	≤ 50 nM	COc1ccc(Nc2nc(-c3ccc4cn[nH]c4c3)cn3ncnc23)cc1OC [I3, N-(3,4-dimethoxyphenyl)-6-(1H-indazol-6-yl)-[1,2,4]triazolo[1,5-a]pyrazin-8-amine]
> 5000 nM	≤ 50 nM	O=C(O)c1ccc(NC(=O)c2cccc(-c3cn4ncnc4c(Nc4ccc(N5CCOCC5)cc4)n3)c2)cc1 [I7, 4-(3-(8-((4-morpholinophenyl)amino)-[1,2,4]triazolo[1,5-a]pyrazin-6-yl)benzamido)benzoic acid]
500 to 5000 nM	50 to 500 nM	CC(C)Oc1cc(Nc2nc(-c3ccc4cn[nH]c4c3)cn3ncnc23)ccc1N1CCOCC1 [I75, 6-(1H-indazol-6-yl)-N-(3-isopropoxy-4-morpholinophenyl)-[1,2,4]triazolo[1,5-a]pyrazin-8-amine]
	50 to 500 nM	c1nc2c(Nc3ccc(N4CCOCC4)c(OC4CC4)c3)nc(-c3ccc4cn[nH]c4c3)cn2n1 [I74, N-(3-cyclopropoxy-4-morpholinophenyl)-6-(1H-indazol-6-yl)-[1,2,4]triazolo[1,5-a]pyrazin-8-amine]
	> 5000 nM	c1cc2cc(-c3cn4cnnc4c(Nc4ccc(N5CCOCC5)cc4)n3)ccc2[nH]1 [I66, 6-(1H-indol-5-yl)-N-(4-morpholinophenyl)-[1,2,4]triazolo[4,3-a]pyrazin-8-amine]
	50 to 500 nM	COc1ccc(Nc2nc(-c3cnc4c(c3)OCC(=O)N4)cn3ncnc23)cc1OC [I36, 7-(8-((3,4-dimethoxyphenyl)amino)-[1,2,4]triazolo[1,5-a]pyrazin-6-yl)-2H-pyrido[3,2-b][1,4]oxazin-3(4H)-one]
	> 5000 nM	COc1cc(Nc2nc(-c3ccc4[nH]ccc4c3)cn3cnnc23)ccc1N1CCOCC1 [I68, 6-(1H-indol-5-yl)-N-(3-methoxy-4-morpholinophenyl)-[1,2,4]triazolo[4,3-a]pyrazin-8-amine]
	50 to 500 nM	COc1ccc(Nc2nc(-c3cnc4c(c3)OC(C)(C)C(=O)N4)cn3ncnc23)cc1OC [I37, 7-(8-((3,4-dimethoxyphenyl)amino)-[1,2,4]triazolo[1,5-a]pyrazin-6-yl)-2,2-dimethyl-2H-pyrido[3,2-b][1,4]oxazin-3(4H)-one]
	≤ 50 nM	COc1cc(Nc2nc(-c3ccc4cn[nH]c4c3)cn3ncnc23)ccc1N1CCN(CC(F)(F)F)CC1 [I8, 6-(1H-indazol-6-yl)-N-(3-methoxy-4-(4-(2,2,2-trifluoroethyl)piperazin-1-yl)phenyl)-[1,2,4]triazolo[1,5-a]pyrazin-8-amine]
	> 5000 nM	c1nc2c(Nc3ccc(N4CCC5(COC5)C4)cc3)nc(-c3ccc4cn[nH]c4c3)cn2n1 [I63, N-(4-(2-oxa-6-azaspiro[3.4]octan-6-yl)phenyl)-6-(1H-indazol-6-yl)-[1,2,4]triazolo[1,5-a]pyrazin-8-amine]
